Experimental data as given in ChEMBL document CHEMBL2146471, “Derivatives of heteroarylsulfonamides, their preparation, and their application in human therapy: patent highlight” (ACS Med Chem Lett, 2012).

Biological target: Potassium voltage-gated channel subfamily A member 5 (Homo sapiens) (UniProt P22460)
Assay: Inhibition of Kv1.5 ion channel expressed in HEK293 cells at 10 uM by FLIPR assay
Type: cell-based

Chain of Potassium voltage-gated channel subfamily A member 5 (Homo sapiens) (P22460 whole entry): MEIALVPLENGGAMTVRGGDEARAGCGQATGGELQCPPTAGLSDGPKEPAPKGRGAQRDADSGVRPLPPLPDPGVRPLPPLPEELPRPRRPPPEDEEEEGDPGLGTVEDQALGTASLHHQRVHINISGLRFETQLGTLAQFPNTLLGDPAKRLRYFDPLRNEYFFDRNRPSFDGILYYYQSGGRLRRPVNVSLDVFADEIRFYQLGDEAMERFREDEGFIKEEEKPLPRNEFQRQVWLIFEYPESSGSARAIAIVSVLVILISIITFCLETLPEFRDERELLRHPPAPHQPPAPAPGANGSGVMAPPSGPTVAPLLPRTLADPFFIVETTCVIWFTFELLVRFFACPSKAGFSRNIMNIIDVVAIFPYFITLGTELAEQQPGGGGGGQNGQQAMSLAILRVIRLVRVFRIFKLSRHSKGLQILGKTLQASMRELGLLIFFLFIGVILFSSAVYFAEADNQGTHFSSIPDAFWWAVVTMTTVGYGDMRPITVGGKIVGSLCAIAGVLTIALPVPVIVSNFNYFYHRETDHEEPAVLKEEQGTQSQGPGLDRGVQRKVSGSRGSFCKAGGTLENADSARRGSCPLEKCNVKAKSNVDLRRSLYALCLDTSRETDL

Compound | inhibition [%]
O=S(=O)(Nc1ccccc1OCC1CCN(c2nc3ccccc3s2)C1)c1ccccn1 (stereo not given) | 76
O=C(c1ccc(NS(=O)(=O)c2ccccn2)cc1)N1CCN(c2nc3ccc(F)cc3s2)CC1 | 100

Continued, values first:

inhibition [%] | Compound
100 | O=C(c1ccccc1NS(=O)(=O)c1ccccn1)N1CCN(c2nc3ccc(Br)cc3s2)CC1
75.1 | O=C(c1cccc(NS(=O)(=O)c2ccccn2)c1)N1CCN(c2nc3ccc(Cl)cc3s2)CC1
100 | O=S(=O)(Nc1ccccc1OC1CCN(c2nc3ccc(Br)cc3s2)CC1)c1ccccn1
